Assay results: article PMC7845634 (mBio, 2021)
Where two headings read alike, the source gives them in different places.

Key:
Format in all cases: cell-based
[1] = system: SARS-CoV-2 replicon; test: microbe, parasite or virus in culture; conditions: for IC50: Severe acute respiratory syndrome coronavirus 2, HEK-293T, read-out: IC50 upon replicon RNA synthesis (luciferase activity); for Result of compound library screening on replicon: Approved Drug Screening Library, final concentration 20 μM, 24 h treatment
[2] = system: GFP signal of ps2V plasmid
[3] = system: authentic SARS-CoV-2; test: Authentic SARS-CoV-2 infection assay, viral RNA copies by RT-qPCR; conditions: Severe acute respiratory syndrome coronavirus 2, HEK-293T, 24 h, read-out: IC50 on authentic viruses (viral RNA copies)
[4] = system: IRES-CMV-luciferase; test: IRES-CMV-luciferase plasmid counter-assay in 293T cells
[5] = Homo sapiens, HEK-293T, read-out: IC50 on IRES-CMV-luciferase activity, 293T cells, drug added 24 to 30 h after transfection, 24 h treatment
[6] = 293T cells, drug added 24 to 30 h after transfection, 24 h treatment

| SMILES | IC50 [1] [µM] | Effect on GFP signal [2] | IC50 [3] [µM] | IC50 [4, 5] [µM] | IC50 ([4]; 293T cells, drug added 24 to 30 h after transfection, 24 h treatment, read-out: IC50 on IRES-CMV-luciferase activity) [µM] | IC50 on IRES-CMV-luciferase activity [4, 6] | Result of compound library screening on replicon [1] |
| --- | --- | --- | --- | --- | --- | --- | --- |
| CCC(CC)COC(=O)[C@H](C)N[P@](=O)(OC[C@H]1O[C@@](C#N)(c2ccc3c(N)ncnn23)[C@H](O)[C@@H]1O)Oc1ccccc1 [remdesivir] | 12.4 ± 1.08 | little effect on GFP signal |  |  |  |  |  |
| Cc1cccc(C)c1OCC(=O)N[C@@H](Cc1ccccc1)[C@@H](O)C[C@H](Cc1ccccc1)NC(=O)[C@H](C(C)C)N1CCCNC1=O [lopinavir] | 6.79 ± 1.09 | little effect on GFP signal |  |  |  |  |  |
| COc1cccc2c1C(=O)c1c(O)c3c(c(O)c1C2=O)C[C@@](O)(C(=O)CO)C[C@@H]3O[C@H]1C[C@H](N)[C@H](O)[C@H](C)O1 [Adriamycin] | 0.824 ± 0.114 |  | 0.612 ± 0.228 | 17.8 |  |  |  |
| O=C1c2c(O)ccc(O)c2C(=O)c2c(NCCNCCO)ccc(NCCNCCO)c21 [mitoxantrone] | 0.338 ± 0.235 |  | 0.133 ± 0.0901 | 27.8 | 26.8 ± 1.2 |  |  |
| CCc1cc2c(cc1N1CCC(N3CCOCC3)CC1)C(C)(C)c1[nH]c3cc(C#N)ccc3c1C2=O [alectinib] | 0.564 ± 0.0175 |  | 0.14 ± 0.0913 |  |  | no statistical significance |  |
| C[C@H]1O[C@@H](O[C@H]2[C@@H](O)C[C@H](O[C@H]3[C@@H](O)C[C@H](O[C@H]4CC[C@@]5(C)[C@H](CC[C@@H]6[C@@H]5CC[C@]5(C)[C@@H](C7=CC(=O)OC7)CC[C@]65O)C4)O[C@@H]3C)O[C@@H]2C)C[C@H](O)[C@@H]1O [digitoxin] |  |  |  |  |  |  | hit |
| CC(C)c1nc(CN(C)C(=O)N[C@H](C(=O)N[C@@H](Cc2ccccc2)C[C@H](O)[C@H](Cc2ccccc2)NC(=O)OCc2cncs2)C(C)C)cs1 [ritonavir] | 14.8 ± 1.05 | little effect on GFP signal |  |  |  |  |  |
| C=CC(=O)Nc1cccc(Nc2nc(Nc3ccc(N4CCN(C(C)=O)CC4)cc3OC)ncc2C(F)(F)F)c1 [rociletinib] | 7.32 ± 1.21 |  | 11.2 ± 1.89 |  |  | no statistical significance |  |
| C[C@@H]1O[C@@H](O[C@H]2C[C@@H](O)[C@]3(CO)[C@H]4[C@H](O)C[C@]5(C)[C@@H](C6=CC(=O)OC6)CC[C@]5(O)[C@@H]4CC[C@]3(O)C2)[C@H](O)[C@H](O)[C@H]1O [ouabain] |  |  |  |  |  |  | hit |
| CC[C@H]1CN2CCc3cc(OC)c(OC)cc3[C@@H]2C[C@@H]1C[C@H]1NCCc2cc(OC)c(OC)cc21 [emetine] | 0.273 ± 0.0093 | little effect on GFP signal | 0.155 ± 0.068 |  |  |  | hit |
| Cc1ccc(NC(=O)c2ccc(CN3CCN(C)CC3)cc2)cc1Nc1nc(-c2cccnc2)cs1 [masitinib] | 0.652 ± 0.0661 |  | 0.597 ± 0.341 | 8.64 |  |  |  |
| CCN(CC)C(=S)SSC(=S)N(CC)CC [disulfiram] | 9.32 ± 1.65 | little effect on GFP signal |  |  |  |  |  |
